Test results taken from patent US20100022531A1, “NOVEL COMPOUNDS AS P2X7 MODULATORS AND USES THEREOF” (RENOVIS, INC., priority 2005, published 2010).

What follows are compounds tested against T1, P2X7 receptor (Homo sapiens, UniProt Q99572) (assay: Alternate method for IL-1β release assay (differentiated THP-1 cells, BzATP-stimulated, ELISA)). Settings: P2X7; 0.1 μM compound (symbols + to ++++); read-out: IL-1β % inhib @ 0.1 μM.
T1 construct: host or cells: THP-1 cells differentiated with LPS and IFN-γ
T1 sequence (Q99572 1-595): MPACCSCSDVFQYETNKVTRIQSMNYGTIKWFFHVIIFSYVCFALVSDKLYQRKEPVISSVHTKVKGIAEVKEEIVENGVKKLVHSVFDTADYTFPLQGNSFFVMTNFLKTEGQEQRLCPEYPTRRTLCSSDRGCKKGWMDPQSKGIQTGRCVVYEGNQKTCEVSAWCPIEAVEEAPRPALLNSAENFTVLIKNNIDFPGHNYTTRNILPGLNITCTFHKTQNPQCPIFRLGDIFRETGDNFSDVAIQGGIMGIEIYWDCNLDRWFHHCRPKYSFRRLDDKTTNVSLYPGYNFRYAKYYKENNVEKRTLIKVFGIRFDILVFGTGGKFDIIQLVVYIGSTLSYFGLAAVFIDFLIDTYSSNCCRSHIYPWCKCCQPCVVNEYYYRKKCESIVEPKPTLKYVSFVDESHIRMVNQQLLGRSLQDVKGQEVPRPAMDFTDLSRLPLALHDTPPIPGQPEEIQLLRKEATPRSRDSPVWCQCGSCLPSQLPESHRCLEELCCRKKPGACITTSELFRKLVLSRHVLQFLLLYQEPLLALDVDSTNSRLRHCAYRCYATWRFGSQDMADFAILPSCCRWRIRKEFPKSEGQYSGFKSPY
Assay type: cell-based
Procedure, shortened: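 After 16 h differentiation with 100 ng/mL LPS and 100 ng/mL IFN-γ plus a further 2 h LPS priming, THP-1 cells were pretreated 30 min with compound, then stimulated with 250 uM BzATP (final) for 45 min. Supernatant IL-1β measured by ELISA; percent inhibition from background-adjusted levels versus untreated cells.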

| Compound | inhibition at 0.1 µM [%] |
| --- | --- |
| OC12CC3CC(C1)CC(CNc1ncnc4c1CCN(Cc1ccccc1)C4)(C3)C2 [Compound 326, 3-[(7-Benzyl-5,6,7,8-tetrahydro-pyrido[3,4-d]pyrimidin-4-ylamino)-methyl]-adamantan-1-ol] | > 75 |
| O=C(OCc1ccc(F)cc1)N1CCc2c(ncnc2NCC23CC4CC(CC(C4)C2)C3)C1 [Compound 327] | 50 to 75 |
| CS(=O)(=O)c1ccc(COC(=O)N2CCc3c(ncnc3NCC34CC5CC(CC(C5)C3)C4)C2)cc1 [Compound 329] | 50 to 75 |
| FC12CC3CC(C1)CC(CNc1ncnc4c1CCN(Cc1ccc5c(c1)OCCO5)C4)(C3)C2 [Compound 332] | 0 to 25 |
| N#Cc1cccc(C(=O)N2CCc3c(ncnc3NCC34CC5CC(CC(F)(C5)C3)C4)C2)c1 [Compound 333] | 25 to 50 |
| O=C(OCCSCc1ccccc1)N1CCc2c(ncnc2NCC23CC4CC(CC(C4)C2)C3)C1 [Compound 334] | 25 to 50 |
| O=C(SCc1ccc(F)cc1)N1CCc2c(ncnc2NCC23CC4CC(CC(C4)C2)C3)C1 [Compound 335] | 0 to 25 |
| O=C(OCc1c(F)cccc1F)N1CCc2c(ncnc2NCC23CC4CC(CC(C4)C2)C3)C1 [Compound 338] | > 75 |
| O=C(SCc1c(F)cccc1Cl)N1CCc2c(ncnc2NCC23CC4CC(CC(C4)C2)C3)C1 [Compound 344] | 25 to 50 |
| Cc1nn(-c2ccccc2)nc1COC(=O)N1CCc2c(ncnc2NCC23CC4CC(CC(C4)C2)C3)C1 [Compound 345] | 25 to 50 |
| O=C(OCc1ncoc1-c1ccccc1)N1CCc2c(ncnc2NCC23CC4CC(CC(C4)C2)C3)C1 [Compound 346] | 0 to 25 |
| O=C(c1cccnc1)N1CCc2c(ncnc2NCC23CC4CC(CC(O)(C4)C2)C3)C1 [Compound 350, {4-[(3-Hydroxy-adamantan-1-ylmethyl)-amino]-5,8-dihydro-6H-pyrido[3,4-d]pyrimidin-7-yl}-pyridin-3-yl-methanone] | 25 to 50 |
| CC(C)[C@H](NC(=O)OC(C)(C)C)C(=O)N1CCc2c(ncnc2NCC23CC4CC(CC(C4)C2)C3)C1 [Compound 351] | > 75 |

Next, values leading:

| inhibition at 0.1 µM [%] | Compound |
| --- | --- |
| 50 to 75 | O=C(OCc1cccnc1)N1CCc2c(ncnc2NCC23CC4CC(CC(C4)C2)C3)C1 [Compound 328] |
| 0 to 25 | Cc1cc(COC(=O)N2CCc3c(ncnc3NCC34CC5CC(CC(C5)C3)C4)C2)no1 [Compound 330] |
| 0 to 25 | O=C(OCc1cscn1)N1CCc2c(ncnc2NCC23CC4CC(CC(C4)C2)C3)C1 [Compound 331] |
| > 75 | O=C(OCc1ccco1)N1CCc2c(ncnc2NCC23CC4CC(CC(C4)C2)C3)C1 [Compound 336] |
| 0 to 25 | O=C(OCc1ccccc1F)N1CCc2c(ncnc2NCC23CC4CC(CC(C4)C2)C3)C1 [Compound 337] |
| > 75 | O=C(OCc1ccccc1Cl)N1CCc2c(ncnc2NCC23CC4CC(CC(C4)C2)C3)C1 [Compound 339] |
| 50 to 75 | O=C(OCc1ccoc1)N1CCc2c(ncnc2NCC23CC4CC(CC(C4)C2)C3)C1 [Compound 340] |
| 50 to 75 | O=C(OCC1CCCO1)N1CCc2c(ncnc2NCC23CC4CC(CC(C4)C2)C3)C1 (centres unmarked) [Compound 341] |
| 0 to 25 | O=C(OCc1ccccn1)N1CCc2c(ncnc2NCC23CC4CC(CC(C4)C2)C3)C1 [Compound 342] |
| 0 to 25 | O=C(OCc1ccncc1)N1CCc2c(ncnc2NCC23CC4CC(CC(C4)C2)C3)C1 [Compound 343] |
| 50 to 75 | Cc1cc(COC(=O)N2CCc3c(ncnc3NCC34CC5CC(CC(C5)C3)C4)C2)nn1C [Compound 347] |
| 25 to 50 | O=C(OCc1cnccn1)N1CCc2c(ncnc2NCC23CC4CC(CC(C4)C2)C3)C1 [Compound 348] |
| 0 to 25 | O=C(OCc1cncs1)N1CCc2c(ncnc2NCC23CC4CC(CC(C4)C2)C3)C1 [Compound 349] |

Same assay, conditions: P2X7; at 0.03 μM (asterisk symbols); read-out: IL-1β % inhib @ 0.3 μM or @ 0.03 μM

| inhibition at 0.03 µM [%] | Compound |
| --- | --- |
| 50 to 75 | CC(C)(C)OC(=O)NCC(=O)N1CCc2c(ncnc2NCC(O)C23CC4CC(CC(C4)C2)C3)C1 (centres unmarked) [Compound 707, {2-[4-(2-Adamantan-1-yl-2-hydroxy-ethylamino)-5,8-dihydro-6H-pyrido[3,4d]pyrimidin-7-yl]-2-oxo-ethyl}-carbamic acid tert-butyl ester] |
| 50 to 75 | C[C@H](NC(=O)OC(C)(C)C)C(=O)N1CCc2c(ncnc2NCC(O)C23CC4CC(CC(C4)C2)C3)C1 (stereo partly drawn) [Compound 708, {(S)-2-[4-(2-Adamantan-1-yl-2-hydroxy-ethylamino)-5,8-dihydro-6H-pyrido[3,4-d]pyrimidin-7-yl]-1-methyl-2-oxo-ethyl}-carbamic acid tert-butyl ester] |
| 0 to 25 | CC(C)(C)OC(=O)N[C@@H](Cc1ccccc1)C(=O)N1CCc2c(ncnc2NCC(O)C23CC4CC(CC(C4)C2)C3)C1 (stereo partly drawn) [Compound 709, {(S)-2-[4-(2-Adamantan-1-yl-2-hydroxy-ethylamino)-5,8-dihydro-6H-pyrido[3,4-d]pyrimidin-7-yl]-1-benzyl-2-oxo-ethyl}-carbamic acid tert-butyl ester] |
| 0 to 25 | C[C@@H](NC(=O)OC(C)(C)C)C(=O)N1CCc2c(ncnc2NCC(O)C23CC4CC(CC(C4)C2)C3)C1 (stereo partly drawn) [Compound 710, {(R)-2-[4-(2-Adamantan-1-yl-2-hydroxy-ethylamino)-5,8-dihydro-6H-pyrido[3,4-d]pyrimidin-7-yl]-1-methyl-2-oxo-ethyl}-carbamic acid tert-butyl ester] |
| 0 to 25 | CC(C)(C)OC(=O)N[C@H](Cc1ccccc1)C(=O)N1CCc2c(ncnc2NCC(O)C23CC4CC(CC(C4)C2)C3)C1 (stereo partly drawn) [Compound 711, {(R)-2-[4-(2-Adamantan-1-yl-2-hydroxy-ethylamino)-5,8-dihydro-6H-pyrido[3,4-d]pyrimidin-7-yl]-1-benzyl-2-oxo-ethyl}-carbamic acid tert-butyl ester] |
| 0 to 25 | C[C@H](N)C(=O)N1CCc2c(ncnc2NCC(O)C23CC4CC(CC(C4)C2)C3)C1 (stereo partly drawn) [Compound 713, (S)-1-[4-(2-Adamantan-1-yl-2-hydroxy-ethylamino)-5,8-dihydro-6H-pyrido[3,4-d]pyrimidin-7-yl]-2-amino-propan-1-one] |
